The results in this text go back to patent US20040209799A1, “JAK/STAT pathway inhibitors and the uses thereof” (priority 2000, published 2004).

The target of test [1] is LCK (Lymphoid T-cell protein tyrosine kinase) (Homo sapiens, UniProt P06239). As to the kind of experiment: poly (Glu, Tyr) 4:1 ELISA, LCK. The test is classed as biochemical. How it is done: (§1) To further examine the inhibition characteristics of DBH (and its variants) to a variety of cellular components, a poly (Glu, Tyr) 4:1 ELISA was performed. Hymenialdisine (H), DBH (as marine sponge extracts: see Chipman and Faulkner, 1997), and three variant forms of synthetic DBH: the free base form of DBH (DBH-2FB), a trifluoroacetic acid salt form of DBH (DBH-2S), and a methanesulfonic acid salt form of DBH (DBH 1) were solubilized in DMSO, and tested for the ability to inhibit; ZAP-70 (ζ-associated polypeptide of 70 kDa) protein tyrosine kinase, BTK (Bruton's agarnrnaglobulinaemia tyrosine kinase), JAK3 (Janus kinase 3) protein tyrosine kinase, LCK (Lymphoid T-cell protein tyrosine kinase), and IGFR (Insulin-like growth factor receptor) protein tyrosine kinase.
(§2) Maxisorb microtiter plates (Nalge Nunc International, Rochester, N.Y.) were coated with 1 mg/ml Poly(Glu,Tyr) 4:1 (Sigma, St. Louis, Mo.) solubilized in phosphate buffered saline (PBS), 0.02% sodium azide. On the day of the assay, microtiter plates were washed 4× with TBS-Tween (25 mM Tris pH 8.0, 150 mM NaCl, 0.05% Tween 20) using a Skatron plate washer (Skatron Instruments, Sterling, Va.). 200 μl of sterile blocking buffer (3% BSA in PBS, 0.02% sodium azide) was added to each well, and the microtiter plates were incubated at 37° C. for 1 hour. The blocking buffer was removed, the plates washed, and various concentrations of inhibitor were added in a 20 μl volume to the wells. 60 μl of the appropriate substrate mix was then added. Substrate mixes were prepared as described in Table 2:
(§3) Following addition of the substrate mix, 20 μl of the test protein tyrosine kinase (in 1× assay buffer) was added. Kinase reactions were incubated 30 min at 37° C., followed by washes in the Skatron plate washer. 100 μl of biotinylated PT-66 anti-phosphotyrosine monoclonal antibody (Sigma, St. Louis, Mo.) (diluted 1:4000 in 0.5% BSA, sterile-filtered TBS) was added to each well, and incubated for an additional 30 minutes at 37° C. […] The samples were then read at 450 nm in a plate reader.
A general note: ELISA stands for enzyme-linked immunosorbent assay.

Test [2] concerns the target T1, ZAP-70 (ζ-associated polypeptide of 70 kDa) protein tyrosine kinase (Homo sapiens, UniProt P43403).
T1 sequence (P43403 1-619): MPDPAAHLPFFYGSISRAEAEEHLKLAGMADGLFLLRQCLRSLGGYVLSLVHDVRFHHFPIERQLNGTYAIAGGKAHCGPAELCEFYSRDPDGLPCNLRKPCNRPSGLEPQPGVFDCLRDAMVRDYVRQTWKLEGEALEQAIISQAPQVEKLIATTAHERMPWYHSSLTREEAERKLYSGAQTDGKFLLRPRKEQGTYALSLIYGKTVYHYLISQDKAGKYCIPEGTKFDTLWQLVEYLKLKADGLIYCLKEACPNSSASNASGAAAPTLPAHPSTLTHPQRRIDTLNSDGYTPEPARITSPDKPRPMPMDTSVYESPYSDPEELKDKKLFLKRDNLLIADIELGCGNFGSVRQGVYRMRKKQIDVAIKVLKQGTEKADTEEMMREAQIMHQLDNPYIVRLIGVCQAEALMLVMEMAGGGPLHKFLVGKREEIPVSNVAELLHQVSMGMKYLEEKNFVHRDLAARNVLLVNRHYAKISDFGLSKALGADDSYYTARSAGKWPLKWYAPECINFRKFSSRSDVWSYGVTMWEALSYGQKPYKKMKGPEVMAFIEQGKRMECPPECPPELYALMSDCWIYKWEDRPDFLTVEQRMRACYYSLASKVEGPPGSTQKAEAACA
Briefly: poly (Glu, Tyr) 4:1 ELISA, ZAP-70. In kind it is biochemical. The protocol: as §1, §2, §3

The subject of test [3] is rhIL-1β-induced mRNAs in human articular chondrocytes. As to the kind of experiment: northern blot, rhIL-1β-induced mRNAs, comparison of DBH forms (some mRNAs, not named). The test is classed as cell-based. As to conditions: 5 μM, for some mRNAs. The protocol: Frozen human articular chondrocyte cell strain HC30-0198 (described in Example 1) was thawed, and cultured in monolayer in T150 tissue culture flasks (Corning Costar, Cambridge, Mass.) as described above to 1-5 days post-confluence. Test cultures were rinsed in PBS, and preincubated for 2 hours with 10 ml of serum-free DMEM containing 5 μM DBH (synthetic), in its free base or trifluoroacetic acid salt form. An additional 10 ml of serum-free DMEM containing 5 μM DBH, 4 ng/ml recombinant human interleukin-1β (rhIL-1β; final concentration of 2 ng/ml) (R&D Systems, Minneapolis, Minn.), and 2% antibiotic solution (final concentration of 1%), were then added for 24 hours.
Two control cultures were run in parallel: one without DBH (rhIL-1β alone), and another without DBH or rhIL-1β.
Total RNA was fixed to the membrane using a Stratalinker® 1800 UV Crosslinker (Stratagene, La Jolla, Calif.). […]
The blot was successively washed two times in 2×SSC/0.05% SDS (15 min/wash at room temperature), and two times in 0.1×SSC/0.1% SDS (30 minutes/wash at 65° C.). The blot was allowed to air dry, and the radioactive signal was visualized and quantified using a Fujifilm, BAS-1500 phosphorimager (Fuji, Stamford, Conn.). […]

Where [4] appears, read: ec-50 values ranging from hundreds of micromolar to no inhibition (data not shown).

Bounds are passed on as bounds.

Sequence of LCK (Lymphoid T-cell protein tyrosine kinase) (P06239 whole entry, species assumed): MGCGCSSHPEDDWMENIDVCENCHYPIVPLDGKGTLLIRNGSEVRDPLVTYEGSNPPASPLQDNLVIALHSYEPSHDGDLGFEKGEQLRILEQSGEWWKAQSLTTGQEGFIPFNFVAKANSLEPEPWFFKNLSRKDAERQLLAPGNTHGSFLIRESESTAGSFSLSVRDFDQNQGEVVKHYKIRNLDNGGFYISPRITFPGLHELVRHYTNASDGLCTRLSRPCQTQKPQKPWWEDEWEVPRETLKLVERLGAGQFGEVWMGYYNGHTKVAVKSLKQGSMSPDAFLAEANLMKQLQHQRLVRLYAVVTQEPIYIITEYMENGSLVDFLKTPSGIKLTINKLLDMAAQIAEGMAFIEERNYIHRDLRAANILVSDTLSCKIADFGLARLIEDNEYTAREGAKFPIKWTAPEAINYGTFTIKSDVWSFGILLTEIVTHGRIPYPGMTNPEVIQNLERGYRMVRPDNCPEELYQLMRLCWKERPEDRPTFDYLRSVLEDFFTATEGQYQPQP

Take `NC1=NC(=O)C(=C2CCNC(=O)c3[nH]ccc32)N1` [DBH, 4-(2-amino-4-oxo-2-imidazolin-5-ylidene)-4,5,6,7-tetrahydropyrrolo(2,3-c) azepine-8-one]: in test [1] (setting [4]), the “Inhibition of LCK” value is “weak”. In test [2] (setting [4]), the “Inhibition of ZAP-70” value is on record as “weak”.
With `NC1=NC(=O)C(=C2CCNC(=O)c3[nH]ccc32)N1` [DBH-2FB], the IC50 is not below 1970 µM in test [1] (values for the four kinases range from 1971 μM to no inhibition, read-out: α-50 value for LCK) and not below 1970 µM in test [2] (values for the four kinases range from 1971 μM to no inhibition, read-out: α-50 value for ZAP-70). Further, the “inhibition of rhIL-1β-induced mRNAs, compared with the trifluoroacetic acid salt form” value in test [3] is reported as “to a greater extent than the trifluoroacetic acid salt form of DBH”.
